ChEMBL document CHEMBL1124620, “New 1,4-dihydropyridine derivatives combining calcium antagonism and alpha-adrenolytic properties” (J Med Chem, 1989)

Key:
[1] = target: T1, Adrenergic receptor alpha-2 (Rattus norvegicus, UniProt P22086+P19328+P22909); assay: Alpha-2-adrenolytic activity was assessed from the ability to inhibit [3H]yohimbine binding to rat cerebral cortex preparation; assay type: tissue-based
T1 sequence (P22086 whole entry): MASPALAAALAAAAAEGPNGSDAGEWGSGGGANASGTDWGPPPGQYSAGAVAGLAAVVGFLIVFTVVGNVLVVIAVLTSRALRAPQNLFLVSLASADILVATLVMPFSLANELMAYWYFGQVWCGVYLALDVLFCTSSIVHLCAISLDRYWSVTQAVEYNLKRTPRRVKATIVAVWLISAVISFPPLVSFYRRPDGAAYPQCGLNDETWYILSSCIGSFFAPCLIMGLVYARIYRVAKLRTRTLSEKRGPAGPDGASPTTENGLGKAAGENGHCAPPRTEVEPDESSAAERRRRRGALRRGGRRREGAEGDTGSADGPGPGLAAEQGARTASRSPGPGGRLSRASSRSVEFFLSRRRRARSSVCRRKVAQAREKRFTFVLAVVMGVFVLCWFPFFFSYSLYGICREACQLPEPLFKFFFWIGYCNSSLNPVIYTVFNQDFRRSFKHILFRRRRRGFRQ
T1 sequence (P19328 whole entry): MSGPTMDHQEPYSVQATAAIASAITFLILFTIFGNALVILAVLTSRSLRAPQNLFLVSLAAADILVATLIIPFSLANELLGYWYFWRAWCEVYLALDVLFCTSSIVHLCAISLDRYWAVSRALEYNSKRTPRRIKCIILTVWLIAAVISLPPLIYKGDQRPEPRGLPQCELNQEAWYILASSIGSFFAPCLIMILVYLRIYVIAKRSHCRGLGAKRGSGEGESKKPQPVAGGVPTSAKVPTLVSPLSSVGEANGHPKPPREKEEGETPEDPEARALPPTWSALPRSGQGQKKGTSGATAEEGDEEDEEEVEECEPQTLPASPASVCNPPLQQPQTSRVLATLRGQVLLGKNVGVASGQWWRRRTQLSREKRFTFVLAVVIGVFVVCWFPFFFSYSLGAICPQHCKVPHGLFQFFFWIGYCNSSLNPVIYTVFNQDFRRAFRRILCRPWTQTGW
T1 sequence (P22909 whole entry): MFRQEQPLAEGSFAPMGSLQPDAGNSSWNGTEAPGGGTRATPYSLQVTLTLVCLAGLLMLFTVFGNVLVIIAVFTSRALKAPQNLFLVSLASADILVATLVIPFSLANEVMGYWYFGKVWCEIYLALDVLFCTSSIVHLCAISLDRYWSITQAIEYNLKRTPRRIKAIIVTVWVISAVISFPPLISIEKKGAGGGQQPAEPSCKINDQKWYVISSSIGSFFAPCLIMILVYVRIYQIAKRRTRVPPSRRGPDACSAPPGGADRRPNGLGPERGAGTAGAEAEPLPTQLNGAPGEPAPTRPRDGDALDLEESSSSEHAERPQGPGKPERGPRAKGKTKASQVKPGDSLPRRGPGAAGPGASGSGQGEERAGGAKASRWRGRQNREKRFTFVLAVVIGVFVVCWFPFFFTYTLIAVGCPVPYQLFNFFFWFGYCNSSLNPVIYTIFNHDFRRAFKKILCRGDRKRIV

[2] = target: T2, Adrenergic receptor alpha-1 (Rattus norvegicus, UniProt P15823+P23944+P43140); assay: Alpha-1-adrenolytic activity was assessed from the ability to inhibit [3H]prazosin binding to rat cerebral cortex preparation; assay type: tissue-based
T2 sequence (P15823 whole entry): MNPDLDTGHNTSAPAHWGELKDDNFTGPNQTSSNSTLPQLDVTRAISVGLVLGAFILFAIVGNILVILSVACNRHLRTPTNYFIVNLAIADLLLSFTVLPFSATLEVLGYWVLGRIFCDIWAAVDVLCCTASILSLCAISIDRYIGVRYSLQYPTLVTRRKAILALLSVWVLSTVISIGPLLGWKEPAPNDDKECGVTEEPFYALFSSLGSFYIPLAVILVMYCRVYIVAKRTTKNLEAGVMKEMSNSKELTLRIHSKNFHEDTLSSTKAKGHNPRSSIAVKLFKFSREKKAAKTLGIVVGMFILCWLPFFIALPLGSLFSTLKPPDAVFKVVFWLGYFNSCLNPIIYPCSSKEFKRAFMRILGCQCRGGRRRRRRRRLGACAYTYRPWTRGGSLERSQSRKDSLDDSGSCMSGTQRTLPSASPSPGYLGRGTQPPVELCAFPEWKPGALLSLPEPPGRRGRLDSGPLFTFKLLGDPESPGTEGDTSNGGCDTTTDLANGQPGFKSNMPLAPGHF
T2 sequence (P23944 whole entry): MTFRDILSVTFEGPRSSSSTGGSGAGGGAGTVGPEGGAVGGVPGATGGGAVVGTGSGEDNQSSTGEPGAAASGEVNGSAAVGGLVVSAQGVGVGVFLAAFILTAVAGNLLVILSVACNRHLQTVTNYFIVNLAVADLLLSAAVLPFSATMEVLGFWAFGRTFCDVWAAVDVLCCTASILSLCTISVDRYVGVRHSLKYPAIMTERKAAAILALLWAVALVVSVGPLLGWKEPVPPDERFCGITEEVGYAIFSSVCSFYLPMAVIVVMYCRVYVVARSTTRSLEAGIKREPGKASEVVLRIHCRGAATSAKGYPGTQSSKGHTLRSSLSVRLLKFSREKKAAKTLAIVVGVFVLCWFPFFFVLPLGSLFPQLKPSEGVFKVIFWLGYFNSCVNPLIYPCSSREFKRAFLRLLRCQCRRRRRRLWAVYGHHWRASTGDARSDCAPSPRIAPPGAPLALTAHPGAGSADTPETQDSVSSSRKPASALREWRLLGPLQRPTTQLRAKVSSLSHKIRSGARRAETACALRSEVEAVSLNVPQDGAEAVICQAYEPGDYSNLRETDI
T2 sequence (P43140 whole entry): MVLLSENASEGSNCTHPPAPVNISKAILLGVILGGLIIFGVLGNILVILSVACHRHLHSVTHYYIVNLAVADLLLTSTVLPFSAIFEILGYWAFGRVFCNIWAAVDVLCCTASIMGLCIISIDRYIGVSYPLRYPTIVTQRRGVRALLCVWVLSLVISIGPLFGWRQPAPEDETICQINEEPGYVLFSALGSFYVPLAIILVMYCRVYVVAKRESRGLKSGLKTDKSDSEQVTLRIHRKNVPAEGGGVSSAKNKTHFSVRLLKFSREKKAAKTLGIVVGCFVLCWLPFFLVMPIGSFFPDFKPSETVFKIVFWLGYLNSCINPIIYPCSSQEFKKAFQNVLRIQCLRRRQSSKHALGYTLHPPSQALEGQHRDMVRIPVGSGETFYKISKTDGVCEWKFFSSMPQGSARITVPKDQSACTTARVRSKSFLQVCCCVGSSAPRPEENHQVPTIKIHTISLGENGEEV

Sus scrofa = organism: Sus scrofa; assay: Calcium antagonistic activity was evaluated from the inhibition of CaCl2-induced contraction of depolarized pig coronary artery; assay type: functional; conditions: Sus scrofa, Coronary artery
Rattus norvegicus = organism: Rattus norvegicus; assay: Calcium antagonistic activity was evaluated by in vitro inhibition of [3H]nitrendipine binding on rat cerebral cortex; assay type: functional
[3] = target: T2, Adrenergic receptor alpha-1; assay: Alpha-1-adrenolytic activity was assessed in vitro from the ability to inhibit norepinephrine-induced contraction of rat aorta preparation

| SMILES | IC50 [1] | IC50 [2] | IC50 (Sus scrofa) | IC50 (Rattus norvegicus) | IC50 [3] |
| --- | --- | --- | --- | --- | --- |
| COC(=O)C1=C(C)NC(C)=C(C(=O)OCCN(C)Cc2ccccc2)C1c1cccc([N+](=O)[O-])c1 (centres undefined) [NICARDIPINE] | 1400 nM | 3600 nM | 0.3 nM | 0.026 nM | > 0.00001 M |
| CC1=NC(C)=C(C(=O)OCCN(C)CC2COc3ccccc3O2)C(c2cccc([N+](=O)[O-])c2)/C1=C(\O)OC(C)C.Cl (centres undefined) | 830 nM | 3500 nM | 4 nM | 0.06 nM | >> 0.00003 M |
| COC(=O)C1=C(C)NC(C)=C(C(=O)OCCN(C)C[C@H]2COc3ccccc3O2)[C@@H]1c1cccc([N+](=O)[O-])c1.Cl (racemic) | 210 nM | 1900 nM |  |  | 0.00003 M |

More lines, in order of falling IC50 (Rattus norvegicus), values ahead:

| IC50 [1] | IC50 [2] | IC50 (Sus scrofa) | IC50 (Rattus norvegicus) | IC50 [3] | SMILES |
| --- | --- | --- | --- | --- | --- |
|  |  |  | 3000 nM |  | COc1cc2nc(N3CCN(C(=O)c4ccco4)CC3)nc(N)c2cc1OC [PRAZOSIN] |
| 19000 nM | 2000 nM | 2.5 nM | 1 nM | >> 0.00001 M | CO/C(O)=C1\C(C)=NC(C)=C(C(=O)OCCN(C)C[C@@H]2COc3ccccc3O2)[C@H]1c1cccc([N+](=O)[O-])c1.Cl |
